Test results published in PMC6328429, “Synthesis of a benzoxazinthione derivative of tanaproget and pharmacological evaluation for PET imaging of PR expression” (EJNMMI Radiopharmacy and Chemistry, 2019).
“Also recorded” adds a separate entry of the source.

Key:
GR = target: T1, GR (Homo sapiens, UniProt P04150); assay: PatHunter express CHO-K1 GR nuclear translocation assay; assay type: cell-based; settings: CHO-K1 cells; 6 h; at 0.5 μM; dexamethasone positive control
T1 construct: host or cells: CHO-K1 (Chinese hamster ovary) cells
T1 sequence (P04150 1-777): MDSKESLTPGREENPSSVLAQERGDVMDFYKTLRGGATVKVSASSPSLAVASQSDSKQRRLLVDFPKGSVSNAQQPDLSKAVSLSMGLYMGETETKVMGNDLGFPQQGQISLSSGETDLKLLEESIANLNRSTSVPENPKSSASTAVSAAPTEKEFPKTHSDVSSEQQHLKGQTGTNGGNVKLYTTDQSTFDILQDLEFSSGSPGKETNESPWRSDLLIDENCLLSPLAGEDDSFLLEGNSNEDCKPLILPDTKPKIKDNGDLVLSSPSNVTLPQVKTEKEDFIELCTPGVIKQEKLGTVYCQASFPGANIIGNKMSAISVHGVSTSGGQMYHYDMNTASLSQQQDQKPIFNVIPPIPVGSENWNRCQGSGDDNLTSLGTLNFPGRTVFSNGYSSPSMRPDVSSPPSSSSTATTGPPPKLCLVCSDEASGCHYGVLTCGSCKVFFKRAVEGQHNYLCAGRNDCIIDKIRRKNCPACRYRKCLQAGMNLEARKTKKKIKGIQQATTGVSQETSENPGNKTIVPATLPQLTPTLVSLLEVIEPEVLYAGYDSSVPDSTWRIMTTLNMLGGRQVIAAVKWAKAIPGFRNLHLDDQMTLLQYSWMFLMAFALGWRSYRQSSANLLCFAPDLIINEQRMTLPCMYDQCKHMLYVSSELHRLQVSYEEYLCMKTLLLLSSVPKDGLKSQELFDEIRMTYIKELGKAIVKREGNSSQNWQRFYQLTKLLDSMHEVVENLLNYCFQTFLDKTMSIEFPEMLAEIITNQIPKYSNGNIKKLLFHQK
Description: Compound 2 was analysed for GR binding using the PatHunter® express CHO-K1 GR Nuclear Translocation assay (DiscoveRx™, Fremont, CA, USA). Reagents were thawed and equilibrated to room temperature prior to use. Dexamethasone standard (10 mM, 100% DMSO) was diluted and used to prepare 12 standards by 1:4 dilution. Test compound 2 was dissolved in 100% DMSO and diluted in serial 1:3 dilutions to a final concentration of DMSO (v/v) of 0.1%. CHO-K1 (Chinese hamster ovary) cells were seeded in a 96-well plate with CP reagent and incubated for 24 h at 37 °C, 5% CO2. Cells were then incubated with the Dexamethasone standard and compound 2 for 6 h at 37 °C, 5% CO2. Following incubation, signal was detected using the PathHunter® detection reagent provided in the kit and incubated in the dark for 1 h. The plate was read using a luminescence plate reader (Additional file 1: Figure S33).

[1] = target: T2, progesterone receptor (PR) (Homo sapiens, UniProt P06401); assay: T47D alkaline phosphatase (AP) potency assay; assay type: cell-based
T2 construct: endogenous in cells; host or cells: T47D breast carcinoma cells
T2 sequence (P06401 1-933): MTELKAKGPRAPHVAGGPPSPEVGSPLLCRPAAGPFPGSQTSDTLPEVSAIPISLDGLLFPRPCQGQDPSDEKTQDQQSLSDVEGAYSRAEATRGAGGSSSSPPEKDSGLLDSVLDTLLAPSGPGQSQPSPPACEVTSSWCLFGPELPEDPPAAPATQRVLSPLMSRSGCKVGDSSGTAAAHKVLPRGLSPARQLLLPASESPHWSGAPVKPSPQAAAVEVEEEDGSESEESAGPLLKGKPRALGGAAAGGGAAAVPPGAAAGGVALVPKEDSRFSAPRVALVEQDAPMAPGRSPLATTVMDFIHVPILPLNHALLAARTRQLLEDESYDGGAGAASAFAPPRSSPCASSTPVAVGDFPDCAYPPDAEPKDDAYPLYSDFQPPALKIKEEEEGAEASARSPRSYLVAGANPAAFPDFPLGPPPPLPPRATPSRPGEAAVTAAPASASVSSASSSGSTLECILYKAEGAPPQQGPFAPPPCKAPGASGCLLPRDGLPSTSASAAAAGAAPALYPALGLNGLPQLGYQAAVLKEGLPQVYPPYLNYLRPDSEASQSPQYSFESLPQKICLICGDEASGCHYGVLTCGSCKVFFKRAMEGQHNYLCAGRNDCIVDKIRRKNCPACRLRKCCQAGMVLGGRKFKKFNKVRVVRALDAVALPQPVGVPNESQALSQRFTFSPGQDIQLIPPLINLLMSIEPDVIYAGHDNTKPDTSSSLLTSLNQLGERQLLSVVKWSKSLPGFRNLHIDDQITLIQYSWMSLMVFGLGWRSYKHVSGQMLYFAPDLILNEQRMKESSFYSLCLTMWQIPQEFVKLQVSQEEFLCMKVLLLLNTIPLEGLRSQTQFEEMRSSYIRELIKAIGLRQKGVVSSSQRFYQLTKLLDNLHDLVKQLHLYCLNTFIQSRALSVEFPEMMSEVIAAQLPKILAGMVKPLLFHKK
Description: The method described by Di Lorenzo et al was followed with minor adaptation (Di Lorenzo et al., [1991]). In brief, T47D breast carcinoma cells were seeded in 96-well plates at 50,000 cell/well in RPMI medium supplemented with 10% FBS. After overnight culture, the medium was changed to RPMI phenol red free containing 2% charcoal-stripped FBS. After 24 h, the cells were treated with progesterone (Sigma Aldrich, Gillingham, UK) or the library compounds. Progesterone and the test compounds were dissolved in DMSO (100%) and diluted into treatment medium to give a final DMSO (v/v) concentration of 0.1%. After incubation (48 h) the treatment was finalised by twice washing the plates with PBS. Cells were lysed by two freeze-thaw cycles (− 80 °C). Cellular alkaline phosphatase activity was determined by adding Femto ELISA-AP substrate (200 μL) and optical density measurements taken at 5 and 10 min intervals at a wavelength of 405 nm. Data was interpreted using Graphpad Prism (GraphPad, CA, USA) using the model: dose-response simulation/inhibition, log(agonist/inhibition) vs. response – variable slope (four parameters). For compounds where EC50 > 10,000, an antagonist profile was assumed and the experiment was repeated with the inclusion of progesterone (3 mM) with the library compound. Data shown in the supporting information (Additional file 1: Figure S32).

Structure (SMILES): CC1(C)OC(=S)Nc2ccc(-c3cccnc3F)cc21 [Compound 2, 6-(2-fluoropyridin-3-yl)-4,4-dimethyl-1H-benzo[d][1,3]oxazine-2(4H)-thione]
- GR nuclear translocation response (GR): poor binder; also recorded: failed to elicit a response
- EC50 ([1]; agonist response, 48 h incubation, average of at least n = 3 ± SD): 4.7 ± 0.07 nM
- fold more potent than structural isomer 4 ([1]; compound 2 versus 4): ~1000 fold
